In publication PMC9151520 (Archives of Toxicology, 2022):
“And” between values parts separate entries of the source, which are not always exact repeats. Identical values can stand only once. Counter-ions that a name gives are not always drawn. Like-named read-outs stand apart in the source and are kept apart here.

Experiments:
[1] = system: p53 signaling (p53RE-bla HCT-116 cells)
p53RE-bla HCT-116 cells [2] = system: p53RE-bla HCT-116 cells
p53RE-bla HCT-116 cells [3] = assay: cells; settings: Homo sapiens
[4] = system: p53 signaling (p53RE-bla HCT-116 cells); assay: cells; format: cell-based; settings: for EC50 / Emax: Homo sapiens
[5] = system: p53 signaling (p53RE-bla HCT-116 cells); settings: for EC50: read-out: p53 activation EC50, RLM
[6] = system: p53 signaling (p53RE-bla HCT-116 cells); assay: cells; format: cell-based; settings: Homo sapiens, HCT-116, 0.5 h
[7] = system: p53 signaling (p53RE-bla HCT-116 cells); assay: cells; format: cell-based; settings: Homo sapiens, HCT-116
[8] = system: p53 signaling (p53RE-bla HCT-116 cells); assay: cells; settings: Homo sapiens; for Emax: HCT-116, read-out: efficacy
[9] = system: p53 signaling (p53RE-bla HCT-116 cells); assay: cells; settings: Homo sapiens, HCT-116, read-out: p53 activation EC50, HLM
[10] = HCT-116, read-out: EC50, viability, primary screening
[11] = HCT-116, read-out: EC50, p53 activation, primary screening
[12] = HCT-116, read-out: Efficacy, p53 activation, primary screening
[13] = read-out: EC50, viability, primary screening
[14] = HCT-116, read-out: EC50, viability, cherry pick confirmation
[15] = HCT-116, read-out: EC50, p53 activation, cherry pick confirmation
[16] = HCT-116, read-out: Efficacy, p53 activation, cherry pick confirmation
[17] = HCT-116, read-out: Viability EC50, cherry pick confirmation
[18] = HCT-116, read-out: p53 activation EC50, primary screening
[19] = HCT-116, read-out: p53 activation efficacy, primary screening
[20] = HCT-116, read-out: p53 activation EC50, cherry pick confirmation
[21] = HCT-116, read-out: p53 activation efficacy, cherry pick confirmation
[22] = HCT-116, read-out: p53 activation EC50, RLM

| SMILES | EC50, p53 activation, cherry pick confirmation [1] | EC50, p53 activation, primary screening [1] | Efficacy, p53 activation, cherry pick confirmation [1] | Efficacy, p53 activation, primary screening [1] | EC50, viability, cherry pick confirmation (p53RE-bla HCT-116 cells [2]) | EC50, viability, primary screening (p53RE-bla HCT-116 cells [2]) | EC50 (p53RE-bla HCT-116 cells [3]; [10]) [µM] | EC50 [4, 11] [µM] | Emax [4, 12] [%] | EC50, p53 activation, cherry pick confirmation [5] | EC50, p53 activation, primary screening [5] | Efficacy, p53 activation, cherry pick confirmation [5] | Efficacy, p53 activation, primary screening [5] | EC50 [4, 15] [µM] | Emax [4, 16] [%] | p53 activation EC50, cherry pick confirmation [1] | p53 activation EC50, primary screening [1] | p53 activation efficacy, cherry pick confirmation [1] | p53 activation efficacy, primary screening [1] | Viability EC50, cherry pick confirmation (p53RE-bla HCT-116 cells [2]) | other results |
| --- | --- | --- | --- | --- | --- | --- | --- | --- | --- | --- | --- | --- | --- | --- | --- | --- | --- | --- | --- | --- | --- |
| Oc1c(I)cc(I)cc1I [2,4,6-Triiodophenol] | inactive | inactive | inactive | inactive | inactive | inactive | 19 | 20.7 | 27.1 | inactive | inactive | inactive | inactive |  |  |  |  |  |  |  | EC50, p53 activation, cherry pick confirmation [4]: inactive; Efficacy, p53 activation, cherry pick confirmation [4]: inactive |
| CC1=CC(=O)c2ccccc2C1=O [Menadione] | inactive | inactive | inactive | inactive |  |  | 51.3 | 40.3 | 31.2 | inactive | inactive | inactive | inactive | 16.2 | 33.9 |  |  |  |  |  | EC50 (p53RE-bla HCT-116 cells [2]; read-out: EC50, viability, cherry pick confirmation): 42.4 µM; EC50 (p53RE-bla HCT-116 cells [2]; [13]): 42.4 µM and 46.3 µM; EC50 (p53RE-bla HCT-116 cells [3]; [14]): 36.3 µM |
| CC(C)(C)[C@H]1CC[C@H](CC2=C(O)C(=O)c3ccccc3C2=O)CC1 [Buparvaquone] |  |  |  |  |  |  |  |  |  |  |  |  |  |  |  | inactive | inactive | inactive | inactive | inactive | Viability EC50, primary screening (p53RE-bla HCT-116 cells [2]): inactive; Viability efficacy, primary screening (p53RE-bla HCT-116 cells [2]): inactive; EC50 (p53RE-bla HCT-116 cells [3]; [17]): 1.99 µM; p53 activation EC50, cherry pick confirmation [4]: inactive; p53 activation efficacy, cherry pick confirmation [4]: inactive; EC50 [4, 18]: 1.41 µM; Emax [4, 19]: 33.8%; p53 activation EC50, cherry pick confirmation [5]: inactive; p53 activation EC50, primary screening [5]: inactive; p53 activation efficacy, cherry pick confirmation [5]: inactive; p53 activation efficacy, primary screening [5]: inactive |
| CC[C@@]1(O)C(=O)OCc2c1cc1n(c2=O)Cc2cc3c(CN(C)C)c(O)ccc3nc2-1 [Topotecan hydrochloride] | inactive | inactive | inactive | inactive | inactive | inactive |  | 0.0771 | 69.5 | inactive | inactive | inactive | inactive | 0.589 | 179 |  |  |  |  |  | Efficacy, viability, primary screening (p53RE-bla HCT-116 cells [2]): inactive; EC50 (p53RE-bla HCT-116 cells [3]; [14]): 3.98 µM |
| Oc1ccc(C(c2ccc(O)cc2)(C(F)(F)F)C(F)(F)F)cc1 [Bisphenol AF] | inactive | inactive | inactive | inactive | inactive | inactive | 47.4 | 28.9 | 33.6 | inactive | inactive | inactive | inactive | 31.7 | 55.4 |  |  |  |  |  | Efficacy, viability, cherry pick confirmation (p53RE-bla HCT-116 cells [2]): inactive; EC50 (p53RE-bla HCT-116 cells [2]; [13]): 47.6 µM |
| CCOC(=O)C1(c2ccccc2)CCN(CCC(C#N)(c2ccccc2)c2ccccc2)CC1 [Diphenoxylate hydrochloride] |  |  |  |  |  |  |  |  |  |  |  |  |  |  |  | inactive | inactive | inactive | inactive | inactive | Viability EC50, primary screening (p53RE-bla HCT-116 cells [2]): inactive; Viability efficacy, primary screening (p53RE-bla HCT-116 cells [2]): inactive; EC50 (p53RE-bla HCT-116 cells [3]; [17]): 3.16 µM; EC50 [4, 20]: 8.23 µM; EC50 [4, 18]: 6.87 µM; Emax [4, 21]: 152%; Emax [4, 19]: 77.1%; p53 activation EC50, cherry pick confirmation [5]: inactive; p53 activation EC50, primary screening [5]: inactive; p53 activation efficacy, cherry pick confirmation [5]: inactive; p53 activation efficacy, primary screening [5]: inactive |
| Oc1c(Cl)cc(Cl)c(Cl)c1Cc1c(O)c(Cl)cc(Cl)c1Cl [Hexachlorophene] |  |  |  |  |  |  |  |  |  |  |  |  |  |  |  | inactive | inactive | inactive | inactive | inactive | EC50 (p53RE-bla HCT-116 cells [3]; [17]): 2.23 µM; EC50 [4, 20]: 18 µM; EC50 [4, 18]: 19.9 µM; Emax [4, 21]: 99.6%; Emax [4, 19]: 45.4%; p53 activation EC50, cherry pick confirmation [5]: inactive; p53 activation EC50, primary screening [5]: inactive; p53 activation efficacy, cherry pick confirmation [5]: inactive; p53 activation efficacy, primary screening [5]: inactive |
| CC(C)(c1cc(Br)c(O)c(Br)c1)c1cc(Br)c(O)c(Br)c1 [3,3',5,5'-Tetrabromobisphenol A] | inactive | inactive | inactive | inactive |  |  | 34.3 | 30.1 | 91.5 | inactive | inactive | inactive | inactive |  |  |  |  |  |  |  | EC50 (p53RE-bla HCT-116 cells [2]; [13]): 34.9 µM and 45.8 µM; EC50, p53 activation, cherry pick confirmation [4]: inactive; Efficacy, p53 activation, cherry pick confirmation [4]: inactive |
| CN(C)c1ccc2nc3ccc(=[N+](C)C)cc-3sc2c1 [Methylene blue] |  |  |  |  |  |  |  |  |  |  |  |  |  |  |  | inactive | inactive | inactive | inactive | inactive | Viability EC50, primary screening (p53RE-bla HCT-116 cells [2]): inactive; Viability efficacy, primary screening (p53RE-bla HCT-116 cells [2]): inactive; EC50 (p53RE-bla HCT-116 cells [3]; [17]): 15.8 µM; EC50 [4, 20]: 15.3 µM; EC50 [4, 18]: 10.3 µM; Emax [4, 21]: 53.2%; Emax [4, 19]: 53.4%; p53 activation EC50, cherry pick confirmation [5]: inactive; p53 activation EC50, primary screening [5]: inactive; p53 activation efficacy, cherry pick confirmation [5]: inactive; p53 activation efficacy, primary screening [5]: inactive |
| Cc1nc(N)nc(N)c1-c1ccc(Cl)c(Cl)c1 [Methodichlorophen] | inactive | inactive | inactive | inactive | inactive | inactive |  | 5.92 | 42.9 | inactive | inactive | inactive | inactive | 9.01 | 31.4 |  |  |  |  |  | Efficacy, viability, primary screening (p53RE-bla HCT-116 cells [2]): inactive; EC50 (p53RE-bla HCT-116 cells [3]; [14]): 1.58 µM |
| CNC(=O)O/N=C(\SC)C(=O)N(C)C [Oxamyl] |  |  |  |  |  |  |  |  |  |  |  |  |  |  |  |  |  |  |  |  | EC50 [6]: 14.4 µM; p53 activation EC50, HLM [1]: inactive; Viability EC50, HLM (p53RE-bla HCT-116 cells [2]): inactive; Viability EC50, No MS (p53RE-bla HCT-116 cells [2]): inactive; Viability EC50, RLM (p53RE-bla HCT-116 cells [2]): inactive; Viability Efficacy, HLM (p53RE-bla HCT-116 cells [2]): inactive; Viability Efficacy, No MS (p53RE-bla HCT-116 cells [2]): inactive; Viability Efficacy, RLM (p53RE-bla HCT-116 cells [2]): inactive; EC50 [7]: 22.4 µM; EC50 ([8]; HCT-116): 14.2 µM; Emax [8]: 58.1%; EC50 [8, 22]: 14.1 µM; EC50 [9]: 2.96 µM; p53 activation EC50, No MS [4]: inactive; p53 activation Efficacy, No MS [4]: inactive; EC50 [5]: 10.9 µM |
| COP(=S)(OC)Oc1ccc(SC)c(C)c1 [Fenthion] |  |  |  |  |  |  |  |  |  |  |  |  |  |  |  |  |  |  |  |  | EC50 [6]: 1.28 µM; p53 activation EC50, HLM [1]: inactive; Viability EC50, HLM (p53RE-bla HCT-116 cells [2]): inactive; Viability EC50, No MS (p53RE-bla HCT-116 cells [2]): inactive; Viability EC50, RLM (p53RE-bla HCT-116 cells [2]): inactive; Viability Efficacy, HLM (p53RE-bla HCT-116 cells [2]): inactive; Viability Efficacy, No MS (p53RE-bla HCT-116 cells [2]): inactive; Viability Efficacy, RLM (p53RE-bla HCT-116 cells [2]): inactive; EC50 [7]: 8.86 µM; EC50 ([8]; HCT-116): 7.81 µM; Emax [8]: 39%; EC50 [8, 22]: 8.91 µM; EC50 [9]: 1.1 µM; p53 activation EC50, No MS [4]: inactive; p53 activation Efficacy, No MS [4]: inactive; EC50 [5]: 7.2 µM |
